Values joined by “and” are separate entries in the source; they are usually repeats but may differ in a detail not shown here. Equal values may be shown once.
Key:
BAF complex components = assay: anti-SMARCA4 (BRG1) IP mass spectrometry (Tables 7A-7C); assay type: cell-based, human; details: Aska-SS cells -/+ shSSX
Method: Peptide abundance normalized to SMARCA4 abundance. […] SMARCC1, SS18, GFP, SMARCB1, and TBP levels are shown. […] T indicates 0-40 min timecourse; n=3 experimental replicates at each time point; error bars represent standard deviation.
Nuclear extracts were quantified by Bradford assay and 150-200 μg of protein was incubated with 2 μg of antibody in Buffer EB300 (50 mM Tris pH 7.5, 0.1% NP-40, 1 mM EDTA, 1 mM MgCl2, […] with protease inhibitor (Roche, C756U27), 1 mM DTT and 1 mM phenylmethylsulfonyl fluoride (PMSF)) overnight at 4° C. Each sample was then incubated with Protein G Dynabeads® (Thermo Scientific) for 2-3 hours. Beads were washed three times with Buffer EB300 followed by elution with 20 μL of elution buffer (NuPage™ LDS buffer (2×) (Life Technologies) containing 100 mM DTT and water).

IMR90 fibroblasts = assay: Peptide hybridization assay; assay type: cell-based; details: methanol-fixed IMR90 fibroblasts, co-stain H2A K119Ub
Method: IMR90 fibroblasts were grown on coverslips, washed with PBS and fixed using 100% ice-cold methanol for 3 minutes. Coverslips were then washed with IF wash buffer (PBS 0.1% NP40 1 mM Sodium azide) 3 times. Selected groups were treated with 200 ng/ml of recombinant USP2 catalytic domain (Boston biochem) for 1 hour. Coverslips were then washed 3 times with IF wash buffer and incubated with 2 μM of biotinylated peptides. Coverslips were subsequently washed 3 times with IF wash buffer and fixed in 3% PFA-PBS for 20 minutes. The rest of the procedure followed accordingly to standard IF protocol. In brief, following incubation with primary antibodies, the Anti-rabit Alexa Fluor® 594 and Streptavidin Alexa Fluor® 488 (Life Technologies) secondary antibodies/reagent were used for visualization of primary antibodies or biotinylated peptides. Staining with 4′,6-diamidino-2-phenylindole (DAPI) was used to visualize nuclei. Images were acquired using Zeiss Axio Imager Z2 microscope and images were processed using ImageJ program (NIH).

nucleosome acidic patch = assay: Detection of nucleosome acidic patch interactions by photocrosslinking; assay type: binding; details: diazirine probes in nucleosome acidic patch
Method: Briefly, diazirine-containing recombinant nucleosomes (0.5 uM) were incubated with biotinylated SSX peptides (12.5 uM) in binding buffer (20 mM HEPES, pH 7.9, 4 mM Tris, pH 7.5, 150 mM KCl, 10 mM MgCl2, 10% glycerol, and 0.02% (v/v) IGEPAL CA-630) at 30° C. for 30 mins, and cooled on ice for 5 mins. The reaction mixtures were then irradiated at 365 nm for 10 minutes. Reactions were then analyzed by western blotting employing IRDye® 800CW streptavidin on a LI-COR Odyssey® Infrared Imager. Additional details are found in Dao et al. (2019) Nat.

[1] = tested on: mammalian mononucleosomes from HEK293T cells; assay: Protein and peptide pull downs with mammalian mononucleosomes; assay type: binding, human; details: mammalian mononucleosomes
Method: (§1) The flow through was removed, the immobilized bait was incubated with 1-2 μg of purified mammalian mono-nucleosomes from HEK293T cells, recombinant mono-nucleosomes (EpiCypher, 16-0006), recombinant H2AK119Ub mono-nucleosomes (EpiCypher, 16-0020) or recombinant protein for 3 hours at 4° C., and the beads were washed 3× with EB150 buffer and then eluted in 2×LDS with 200 mM DTT with heating at 95° C. for 5 minutes. The pull downs were then visualized by immunoblot analysis or colloidal blue staining.
Mammalian mononucleosomes were purified from HEK293T cells similar to as previously described (Mashtalir et al. (2014) Mol. Cell 54:392-406). Cells were scraped from plates, washed with cold PBS, and centrifuged at 5,000 rpm for 5 min at 4° C. Pellets were resuspended in hypotonic buffer (EBO: 50 mM Tris HCl, pH 7.5, 1 mM EDTA, 1 mM MgCl2, 0.1% NP40 supplemented with 1 mM DTT, 1 mM PMSF, and protease inhibitor cocktail (Roche, C756U27) and incubated for 5 min on ice. The suspension was centrifuged at 5,000 rpm for 5 min at 4° C., and pellets were resuspended in 5 volumes of EB420 (EBO: 50 mM Tris HCl, pH 7.5, 420 mM NaCl, 1 mM MgCl2, 0.1% NP40 with supplemented with 1 mM DTT and 1 mM PMSF containing protease inhibitor cocktail (Roche, C756U27). Homogenate incubated on rotator for 1 hour at 4° C. The supernatant was then centrifuged at 20,000 rpm (30,000×g) for 1 hour at 4° C. using a SW32Ti rotor. Supernatant was then discarded and chromatin pellet was washed in MNAse buffer (20 mM Tris-HCl pH 7.5, 100 mM KCl, 2 mM MgCl2, 1 mM CaCl2, […] sucrose, 0.1% NP-40, and protease inhibitor cocktail) three times. Following MNase treatment (3 U/mL for 30 min at room temperature, Sigma-Aldrich), the reaction was quenched with 5 mM of EGTA and 5 mM of EDTA. The samples were then centrifuged at 20,000×g for 1 hour at 4° C. to obtain the soluble chromatin fraction. Soluble chromatin fraction was loaded onto 10-30% glycerol gradient (Mashtalir et al. (2014) Mol. Cell 54:392-406) and fractions containing mononucleosomes were isolated and concentrated using centrifugal filter (Amicon, EMD Millipore).

SYO-1 SS cells = assay: Cell proliferation assay; assay type: cell-based, human; details: SYO-1, rescue with variant
Method: To measure cell proliferation following lentiviral infection, 2.5×10^4 cells per well were seeded in 12-well plates following 48-hour exposure to lentivirus and 5-day selection with puromycin or blasticidin, with Day 7 denoting the day cells were plated after infection and selection. The cell viability in three wells was then measured using a Vi-CELL™ Cell Counter (Beckman, Brea, CA) every 72 hours.

Barr bodies (inactive X) = assay: Immunofluorescence, Barr body localization; assay type: cell-based, human
Method: Immunofluorescent images were obtained as previously described (Daou et al. (2011) Pro. Nat. Acad. Sci. U.S.A 108:2747-2752). Following lentiviral infection and/or drug treatment, cells were prepared by fixation in 3% PFA-PBS and then were permeabilized with PBS 0.1% NP40. Following incubation with primary antibodies, the Anti-rabbit Alexa Fluor® 594 and Anti-mouse Alexa Fluor® 488 (Life Technologies) secondary antibodies were used for visualization. Staining with 4′,6-diamidino-2-phenylindole (DAPI) was used to visualize nuclei. Images were acquired using Zeiss Axio Imager Z2 microscope and images were processed using ImageJ program (NIH).

[2] = tested on: recombinant H2AK119Ub mono-nucleosomes; assay: Pull downs with WT or H2A K119Ub nucleosomes; assay type: binding
Method: as §1

[3] = tested on: mammalian mononucleosomes from HEK-293T cells; assay: Quantitative targeted mass spectrometry of histone marks on MBP-SSX1 78aa-bound nucleosomes (Tables 6A-6C); assay type: binding, human; details: SSX1 pulldown
Method: (§2) Mammalian mono-nucleosomes purified from MBP-SSX1 78aa pull downs along with representative input samples were prepared and analyzed by the targeted mass spectrometry pipeline described previously (Creech et al. (2015) Methods 72:57-64). Briefly, samples were prepared by histone extraction by acid precipitation followed by protein digestion from incubation with trypsin. To these prepared samples, synthesized isotopically labeled peptides of histone tails with numerous modifications were added at a known quantity. Each sample was then separated using a Proxeon EASY-nLC™ 1000 UHPLC system (Thermo Scientific) and detected with a Q Exactive™ mass spectrometer (Thermo Scientific). The fold change in abundance of each histone peptide from the input sample compared to the pull down was calculated from the light:heavy ratio in detected peak size.

[4] = molecular target: T1, mammalian mononucleosomes from HEK-293T cells (Homo sapiens, UniProt P0C0S5); assay: as above; assay type: binding; details: SSX1 pulldown, HEK293T nucleosomes; parent peptide H2A.Z; normalized to histone norm peptide, log2
T1 construct: endogenous in cells; host or cells: HEK293T (chromatin digested with MNase, glycerol gradient)
Method: as §2

[5] = molecular target: T2, mammalian mononucleosomes from HEK-293T cells (Homo sapiens, UniProt P62805); assay: as above; assay type: binding; details: SSX1 pulldown, parent peptide H4K20
T2 construct: endogenous in cells; host or cells: HEK293T (chromatin digested with MNase, glycerol gradient)
Method: as §2

[6] = HEK293T nucleosomes, parent peptide H2AK5K9, normalized to histone norm peptide, log2
[7] = HEK293T nucleosomes, parent peptide H2AK13K15, normalized to histone norm peptide, log2
[8] = HEK293T nucleosomes, parent peptide H2B, normalized to histone norm peptide, log2
[9] = HEK293T nucleosomes, parent peptide H3K4, normalized to histone norm peptide, log2
[10] = HEK293T nucleosomes, parent peptide H3K9K14, normalized to histone norm peptide, log2
[11] = HEK293T, parent peptide H2AK5K9
[12] = HEK293T, parent peptide H3K9K14
[13] = HEK293T nucleosomes, normalized to histone norm peptide, log2

T1 sequence (P0C0S5 whole entry): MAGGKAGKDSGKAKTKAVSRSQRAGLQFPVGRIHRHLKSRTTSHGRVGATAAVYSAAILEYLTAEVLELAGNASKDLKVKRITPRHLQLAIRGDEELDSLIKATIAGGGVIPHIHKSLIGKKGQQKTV

ARID1B: BAF complex subunit quantified in the IP MS
Aska (shControl)/Aska (shSS18-SSX) LFQ Intensity (Norm to SMARCA4 Rep 1) (BAF complex components): 0.7212 | Aska (shControl)/Aska (shSS18-SSX) LFQ Intensity (Norm to SMARCA4 Rep 2) (BAF complex components): 0.6498

SSX aa155-188: N-terminally biotinylated peptide of the conserved 34aa region of SSX
labeling of Barr bodies by biotinylated peptide (IMR90 fibroblasts): Clear labeling of Barr bodies | histone-SSX crosslinks across the acidic patch (nucleosome acidic patch): most prominently at positions H2A E56 and H2B E113 | nucleosome binding in pull-down [1]: sufficient for SSX nucleosome binding

BCL7C: BAF complex subunit quantified in the IP MS
Aska (shControl)/Aska (shSS18-SSX) LFQ Intensity (Norm to SMARCA4 Rep 1) (BAF complex components): 1.744 | Aska (shControl)/Aska (shSS18-SSX) LFQ Intensity (Norm to SMARCA4 Rep 2) (BAF complex components): 1.537

SSX aa165-188: biotinylated 24-residue SSX peptide lacking the W164 residue
nucleosome binding in pull-down [1]: failed to do so

SS18-SSX: SS18 aa 1-379 fused to the C-terminal 78 aa of SSX1 (SEQ ID NO: 225)
proliferation of SS cells with shSSX knockdown of endogenous SS18-SSX (SYO-1 SS cells): rescued proliferation | localization / recruitment to Barr bodies (Barr bodies (inactive X); immunofluorescence): strong colocalization

mutation of the C-terminal acidic region of SSX to alanines: GST-SSX with acidic C-term DPEEDDE replaced by AAAAAAA (SGPKRGKHAWTHRLRERKQLVIYEEISAAAAAAA)
affinity to H2A K119Ub-decorated nucleosomes, pulldown ([2]; H3 immunoblot): relieved the preference of SSX for H2AK119Ub nucleosomes | SSX binding to nucleosomes ([2]; WT or H2A K119Ub nucleosomes): not altering SSX binding to nucleosomes

SSX aa166-188: biotinylated 23-residue SSX peptide lacking the W164 residue
nucleosome binding in pull-down [1]: failed to do so

CCCc1cc(C)[nH]c(=O)c1CNC(=O)c1cc(-c2ccc(N3CCN(C(C)C)CC3)nc2)cc2c1cnn2C(C)C [EZH2 inhibitor, reference compound]
SS18-SSX foci localized to Barr bodies after treatment (Barr bodies (inactive X); 293T cells, versus DMSO control): no change to SS18-SSX foci localized to Barr bodies

SSX1
log2norm (Light/Heavy) intensity ratio of H2A(4to11)K5ac1 [3, 6]: 0.569 and 0.624 | log2norm (Light/Heavy) intensity ratio of H2A(4to11)K5ac1K9ac1 [3, 6]: −0.031 and −0.049 | log2norm (Light/Heavy) intensity ratio of H2A(4to11)K9ac1 [3, 6]: −0.254 and −0.375 | log2norm (Light/Heavy) intensity ratio of H2A(4to11)ac0 [3, 6]: −0.026 and 0.061 | log2norm (Light/Heavy) intensity ratio of H2A(12to17)K13ac1 [3, 7]: 0.032 and −0.047 | log2norm (Light/Heavy) intensity ratio of H2A(12to17)K15ac1 [3, 7]: 0.042 and −0.086 | log2norm (Light/Heavy) intensity ratio of H2B(1to29)K5ac1 [3, 8]: 0.273 and 0.323 | log2norm (Light/Heavy) intensity ratio of H2B(1to29)ac0 [3, 8]: 0.152 and 0.160 | log2norm (Light/Heavy) intensity ratio of H3K4ac1 [3, 9]: 0.263 and 0.320 | log2norm (Light/Heavy) intensity ratio of H3K4me0 [3, 9]: 0.549 and 0.339 | log2norm (Light/Heavy) intensity ratio of H3K4me2 [3, 9]: 0.778 and 0.532 | log2norm (Light/Heavy) intensity ratio of H3K4me3 [3, 9]: 0.766 and 0.505 | log2norm (Light/Heavy) intensity ratio of H3K9me1S10ph1K14ac1 [3, 10]: −2.668 and −2.507 | log2norm (Light/Heavy) intensity ratio of H3K9me2S10ph1K14ac1 [3, 10]: −0.870 and −1.009 | log2norm (Light/Heavy) intensity ratio of H3K79me2 ([3]; HEK293T nucleosomes, parent peptide H3K79, normalized to histone norm peptide, log2): 0.826 and 0.557 | H2A(4to11)K5ac1K9ac1 norm to ctrl avg [3, 11]: 0.050 and 0.032 | H2A(4to11)K9ac1 norm to ctrl avg [3, 11]: 0.404 and 0.283 | H2A(12to17)K13ac1 norm to ctrl avg ([3]; HEK293T, parent peptide H2AK13K15): 0.266 and 0.188 | H2B(1to29)K5ac1 norm to ctrl avg ([3]; HEK293T, parent peptide H2B): 0.154 and 0.203 | H2B(1to29)ac0 norm to ctrl avg ([3]; HEK293T, parent peptide H2B): 0.191 and 0.199 | H3K4me0 norm to ctrl avg ([3]; HEK293T, parent peptide H3K4): 0.514 and 0.304 | H3K9me1S10ph1K14ac1 norm to ctrl avg [3, 12]: 0.290 and 0.451 | H3K9me2S10ph1K14ac0 norm to ctrl avg [3, 12]: 1.301 and 0.892 | H3K9me2S10ph1K14ac1 norm to ctrl avg [3, 12]: 1.152 and 1.012 | log2norm (Light/Heavy) intensity ratio of H2AZ(1to19)K4ac1 [4]: −0.217 and 0.048 | log2norm (Light/Heavy) intensity ratio of H2AZ(1to19)ac0 [4]: −0.784 and −0.697 | log2norm (Light/Heavy) intensity ratio of H4(20to23)K20me0 [5, 13]: 0.017 and 0.092 | log2norm (Light/Heavy) intensity ratio of H4(20to23)K20me1 [5, 13]: −0.427 and −0.443 | log2norm (Light/Heavy) intensity ratio of H4(20to23)K20me2 [5, 13]: −0.414 and −0.391 | log2norm (Light/Heavy) intensity ratio of H4(20to23)K20me3 [5, 13]: −0.109 and 0.055 | H4(20to23)K20me1 norm to ctrl avg ([5]; HEK293T): 0.211 and 0.195 | H4(20to23)K20me2 norm to ctrl avg ([5]; HEK293T): 0.024 and 0.047

From patent US20250283871A1, “COMPOSITIONS AND METHODS FOR MODULATING THE INTERACTION BETWEEN SS18-SSX FUSION ONCOPROTEIN AND NUCLEOSOMES” (Dana-Farber Cancer Institute, Inc., priority 2020, published 2025)
